What was measured:
Format in all cases: in vivo
bindweed [1] = experiment: Herbicidal activity test against upland field weeds (soil treatment test); settings: 50 g ai/ha, scale 0 (no control) to 100 (complete control)
Procedure, shortened: (§1)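 Pre-emergence test: seeds or rootstocks were sown in fertilized sandy loam, and the next day the soil surface was sprayed with compound at 50 or 75 g a.i./ha in 50% acetone/0.1% Tween-20. Plants were grown in a greenhouse (30±5 °C, 14/10 h light/dark), then visually scored 0–100 against untreated at 14 d (21 d if needed).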

velvetleaf [2] = experiment: Herbicidal activity test against upland field weeds (foliar treatment test); settings: Abutilon theophrasti, 50 g ai/ha, scale 0-100, read-out: Foliar treatment herbicidal activity, velvet leaf
Procedure, shortened: (§2)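 Weeds were raised from seed or rootstocks in horticultural soil in a greenhouse (30±5° C., 14/10 h light/dark), then foliage was hand-sprayed with compound at 50 or 75 g a.i./ha in 50% acetone with 0.1% Tween-20. Control was scored visually 0–100 against untreated plants after 14 days, or 21 if needed.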

cocklebur [3] = experiment: Herbicidal activity test against upland field weeds (soil treatment test); set-up: key to Soil treatment herbicidal activity, Cocklebur: 0 (no control); 100 (complete control); settings: 50 g ai/ha, scale 0 (no control) to 100 (complete control)
Procedure, shortened: as §1

barnyard grass [4] = experiment: Herbicidal activity test against upland field weeds (foliar treatment test); set-up: key to Foliar treatment herbicidal activity, barnyard grass: 0 (no control); 100 (complete control); settings: 50 g ai/ha, scale 0-100
Procedure, shortened: as §2

crabgrass [5] = experiment: as above; settings: Digitaria sanguinalis, 50 g ai/ha, scale 0-100
Procedure, shortened: as §2

velvetleaf [6] = experiment: Herbicidal activity test against upland field weeds (soil treatment test); set-up: key to Soil treatment herbicidal activity, velvet leaf: 0 (no control); 100 (complete control); settings: 50 g ai/ha, scale 0 (no control) to 100 (complete control)
Procedure, shortened: as §1

quack grass = experiment: Herbicidal activity test against upland field weeds (foliar treatment test); set-up: key to Foliar treatment herbicidal activity, quack grass: 0 (no control); 100 (complete control); settings: 50 g ai/ha, scale 0-100
Procedure, shortened: as §2

fall panicum [7] = experiment: as above; settings: Panicum dichotomiflorum, 50 g ai/ha, scale 0-100
Procedure, shortened: as §2

crabgrass [8] = experiment: Herbicidal activity test against upland field weeds (soil treatment test); set-up: key to Soil treatment herbicidal activity, Crabgrass: 0 (no control); 100 (complete control); settings: 50 g ai/ha, scale 0 (no control) to 100 (complete control)
Procedure, shortened: as §1

indian jointvetch [9] = experiment: Herbicidal activity test against upland field weeds (foliar treatment test); settings: 50 g ai/ha, scale 0-100
Procedure, shortened: as §2

fall panicum [10] = experiment: Herbicidal activity test against upland field weeds (soil treatment test); set-up: key to Soil treatment herbicidal activity, Fall panicum: 0 (no control); 100 (complete control); settings: 50 g ai/ha, scale 0 (no control) to 100 (complete control)
Procedure, shortened: as §1

barnyard grass [11] = experiment: as above; set-up: key to Soil treatment herbicidal activity, barnyard grass: 0 (no control); 100 (complete control); settings: 50 g ai/ha, scale 0 (no control) to 100 (complete control)
Procedure, shortened: as §1

bindweed [12] = experiment: Herbicidal activity test against upland field weeds (foliar treatment test); settings: 50 g ai/ha, scale 0-100
Procedure, shortened: as §2

sorghum [13] = experiment: as above; settings: Sorghum, 50 g ai/ha, scale 0-100
Procedure, shortened: as §2

sorghum [14] = experiment: Herbicidal activity test against upland field weeds (soil treatment test); set-up: key to Soil treatment herbicidal activity, Sorghum: 0 (no control); 100 (complete control); settings: 50 g ai/ha, scale 0 (no control) to 100 (complete control)
Procedure, shortened: as §1

indian jointvetch [15] = experiment: as above; set-up: key to Soil treatment herbicidal activity, Indian jointvetch: 0 (no control); 100 (complete control); settings: 50 g ai/ha, scale 0 (no control) to 100 (complete control)
Procedure, shortened: as §1

cocklebur [16] = experiment: Herbicidal activity test against upland field weeds (foliar treatment test); settings: Xanthium strumarium, 50 g ai/ha, scale 0-100
Procedure, shortened: as §2

| Compound | pest or weed control at 50 g/ha (bindweed [1]) | pest or weed control at 50 g/ha (velvetleaf [2]) | pest or weed control at 50 g/ha (crabgrass [5]) | Soil treatment herbicidal activity, velvet leaf (velvetleaf [6]) | Foliar treatment herbicidal activity, quack grass (quack grass) | pest or weed control at 50 g/ha (fall panicum [7]) | pest or weed control at 50 g/ha (indian jointvetch [9]) | Soil treatment herbicidal activity, barnyard grass (barnyard grass [11]) | pest or weed control at 50 g/ha (bindweed [12]) | plant injury at 50 g/ha (sorghum [13]) | Soil treatment herbicidal activity, Indian jointvetch (indian jointvetch [15]) | pest or weed control at 50 g/ha (cocklebur [16]) | other results |
| --- | --- | --- | --- | --- | --- | --- | --- | --- | --- | --- | --- | --- | --- |
| Cn1nnc(COCc2nc(C(F)(F)C(F)(F)F)ccc2C(=O)Nc2nnnn2C)n1 [Compound No. 2-81, N-(1-methyl-1H-tetrazol-5-yl)-2-(((2-methyl-2H-tetrazol-5-yl)methoxy)methyl)-6-(perfluoroethyl)nicotinamide] | 70% | 90% | 70% | 100 | 0 | 70% | 80% | 100 | 60% | 40% | 100 | 95% | Soil treatment herbicidal activity, Cocklebur (cocklebur [3]): 100; pest or weed control at 50 g/ha (barnyard grass [4]; Echinochloa crus-galli): 80%; Soil treatment herbicidal activity, Crabgrass (crabgrass [8]): 100; pest or weed control at 50 g/ha (fall panicum [10]; Panicum dichotomiflorum): 98%; plant injury at 50 g/ha (sorghum [14]; Sorghum): 50% |
| Cn1nnc(COCc2nc(C(F)(F)F)ccc2C(=O)Nc2nnnn2C)n1 [Compound No. 2-59, N-(1-methyl-1H-tetrazol-5-yl)-2-(((2-methyl-2H-tetrazol-5-yl)methoxy)methyl)-6-(trifluoromethyl)nicotinamide] | 90% | 98% | 98% | 100 | 0 | 95% | 98% | 100 | 90% | 98% | 100 | 98% | pest or weed control at 50 g/ha (cocklebur [3]; Xanthium strumarium): 20%; Foliar treatment herbicidal activity, barnyard grass (barnyard grass [4]): 100; pest or weed control at 50 g/ha (crabgrass [8]; Digitaria sanguinalis): 98%; Soil treatment herbicidal activity, Fall panicum (fall panicum [10]): 100; Soil treatment herbicidal activity, Sorghum (sorghum [14]): 100 |

Reference: patent publication US12495798B2, “Nicotinamide compound and herbicidal composition comprising compound” (KOREA RESEARCH INSTITUTE OF CHEMICAL TECHNOLOGY, priority 2019, dated 2025)
